Key:
Format in all cases: biochemical
[1] = target: human Jak2 (a.a. 828-1132) (Homo sapiens (Human), UniProt O60674); experiment: In vitro JAK kinase assay (HTRF, phosphorylation of a biotinylated peptide), JAK2; conditions: measured at 1 mM ATP
Procedure: Compounds herein were tested for inhibitory activity of JAK targets according to the following in vitro assay described in Park et al., Analytical Biochemistry 1999, 269, 94-104. The catalytic domains of human JAK1 (a.a. 837-1142), Jak2 (a.a. 828-1132) and Jak3 (a.a. 781-1124) with an N-terminal His tag were expressed using baculovirus in insect cells and purified. The catalytic activity of JAK1, JAK2 or JAK3 was assayed by measuring the phosphorylation of a biotinylated peptide. The phosphorylated peptide was detected by homogenous time resolved fluorescence (HTRF). […] Reactions were carried out at room temperature for 1 hr and then stopped with 20 μL 45 mM EDTA, 300 nM SA-APC, 6 nM Eu-Py20 in assay buffer (Perkin Elmer, Boston, Mass.). Binding to the Europium labeled antibody took place for 40 minutes and HTRF signal was measured on a Fusion plate reader (Perkin Elmer, Boston, Mass.).

[2] = target: human JAK1 (a.a. 837-1142); experiment: In vitro JAK kinase assay (HTRF, phosphorylation of a biotinylated peptide), JAK1; conditions: measured at 1 mM ATP; JAK2 IC50 / JAK1 IC50
Outline: (§1)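 N-terminal His-tagged catalytic domains, baculovirus-expressed in insect cells, phosphorylated a biotinylated peptide for 1 hr at room temperature. EDTA stop was followed by SA-APC and Eu-Py20 antibody for 40 minutes, with phosphopeptide read by HTRF.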

[3] = target: human JAK1 (a.a. 837-1142) (Homo sapiens, UniProt P23458); experiment: as above; conditions: measured at 1 mM ATP
Outline: as §1

Sequence of human Jak2 (a.a. 828-1132) (O60674 828-1132): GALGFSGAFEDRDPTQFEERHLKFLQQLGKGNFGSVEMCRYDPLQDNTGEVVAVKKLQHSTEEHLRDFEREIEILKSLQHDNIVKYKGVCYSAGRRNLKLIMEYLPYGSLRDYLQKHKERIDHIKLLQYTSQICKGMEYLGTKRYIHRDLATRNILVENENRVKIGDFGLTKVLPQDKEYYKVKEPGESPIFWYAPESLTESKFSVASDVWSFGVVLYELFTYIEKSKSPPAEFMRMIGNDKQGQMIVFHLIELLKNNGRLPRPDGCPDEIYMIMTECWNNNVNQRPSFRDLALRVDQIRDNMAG

IC50 [1]	IC50 Ratio JAK2/JAK1 [2]	SMILES	IC50 [3]
10 to 50 nM	5.0	CC1CC(N2CC(CC#N)(n3cc(-c4ncnc5[nH]ccc45)cn3)C2)CCN1C(=O)c1cccc(F)c1 (single isomer, unassigned) [Example 149, {1-[1-(3-fluorobenzoyl)-2-methylpiperidin-4-yl]-3-[4-(7H-pyrrolo[2,3-d]pyrimidin-4-yl)-1H-pyrazol-1-yl]azetidin-3-yl}acetonitrile]	
≤ 10 nM	7.0	CC1CC(N2CC(CC#N)(n3cc(-c4ncnc5[nH]ccc45)cn3)C2)CCN1C(=O)c1cccc(F)c1 (single isomer, unassigned) [Example 150, {1-[1-(3-fluorobenzoyl)-2-methylpiperidin-4-yl]-3-[4-(7H-pyrrolo[2,3-d]pyrimidin-4-yl)-1H-pyrazol-1-yl]azetidin-3-yl}acetonitrile]	
10 to 50 nM	8.3	CC1CC(N2CC(CC#N)(n3cc(-c4ncnc5[nH]ccc45)cn3)C2)CCN1Cc1ccc(N(C)C)c(C#N)c1F (single isomer, unassigned) [Example 242, 3-[(4-{3-(cyanomethyl)-3-[4-(7H-pyrrolo[2,3-d]pyrimidin-4-yl)-1H-pyrazol-1-yl]azetidin-1-yl}-2-methylpiperidin-1-yl)methyl]-6-(dimethylamino)-2-fluorobenzonitrile]	≤ 5 nM
	5.9	N#CCC1(n2ccc(-c3ncnc4[nH]ccc34)c2)CN(C2CCN(C(=O)c3nc(C(F)(F)F)cs3)CC2)C1 [Example 346, [3-[3-(7H-Pyrrolo[2,3-d]pyrimidin-4-yl)-1H-pyrrol-1-yl]-1-(1-{[4-(trifluoromethyl)-1,3-thiazol-2-yl]carbonyl}piperidin-4-yl)azetidin-3-yl]acetonitrile]	
	2.7	N#CCC1(n2ccc(-c3ncnc4[nH]ccc34)c2)CN(C2CCN(C(=O)c3cnc(C(F)(F)F)cn3)CC2)C1 [Example 347, [3-[3-(7H-Pyrrolo[2,3-d]pyrimidin-4-yl)-1H-pyrrol-1-yl]-1-(1-{[5-(trifluoromethyl)pyrazin-2-yl]carbonyl}piperidin-4-yl)azetidin-3-yl]acetonitrile]	
	3.2	CS(=O)(=O)N1CCC(N2CC(CC#N)(n3ccc(-c4ncnc5[nH]ccc45)c3)C2)CC1 [Example 348, {1-[1-(Methylsulfonyl)piperidin-4-yl]-3-[3-(7H-pyrrolo[2,3-d]pyrimidin-4-yl)-1H-pyrrol-1-yl]azetidin-3-yl}acetonitrile]	
	15.0	N#CCC1(n2cc(-c3ccnc4[nH]ccc34)cn2)CN(C2CCN(C(=O)c3nc(C(F)(F)F)cs3)CC2)C1 [Example 350, [3-[4-(1H-Pyrrolo[2,3-b]pyridin-4-yl)-1H-pyrazol-1-yl]-1-(1-{[4-(trifluoromethyl)-1,3-thiazol-2-yl]carbonyl}piperidin-4-yl)azetidin-3-yl]acetonitrile]	
	3.8	CS(=O)(=O)N1CCC(N2CC(CC#N)(n3cc(-c4ccnc5[nH]ccc45)cn3)C2)CC1 [Example 351, {1-[1-(Methylsulfonyl)piperidin-4-yl]-3-[4-(1H-pyrrolo[2,3-b]pyridin-4-yl)-1H-pyrazol-1-yl]azetidin-3-yl}acetonitrile]	
	5.0	N#CCC1(n2cc(-c3c(F)cnc4[nH]ccc34)cn2)CN(C2CCN(C(=O)c3ccnc(C(F)(F)F)n3)CC2)C1 [Example 353, [3-[4-(5-Fluoro-1H-pyrrolo[2,3-b]pyridin-4-yl)-1H-pyrazol-1-yl]-1-(1-{[2-(trifluoromethyl)pyrimidin-4-yl]carbonyl}piperidin-4-yl)azetidin-3-yl]acetonitrile]	
	2.1	N#CCC1(n2cc(-c3c(F)cnc4[nH]ccc34)cn2)CN(C2CCN(C(=O)c3cnc(C(F)(F)F)cn3)CC2)C1 [Example 354, [3-[4-(5-Fluoro-1H-pyrrolo[2,3-b]pyridin-4-yl)-1H-pyrazol-1-yl]-1-(1-{[5-(trifluoromethyl)pyrazin-2-yl]carbonyl}piperidin-4-yl)azetidin-3-yl]acetonitrile]	
	3.1	CS(=O)(=O)N1CCC(N2CC(CC#N)(n3cc(-c4c(F)cnc5[nH]ccc45)cn3)C2)CC1 [Example 355, {3-[4-(5-Fluoro-1H-pyrrolo[2,3-b]pyridin-4-yl)-1Hpyrazol-1-yl]-1-[1-(methylsulfonyl)piperidin-4-yl]azetidin-3-yl}acetonitrile]	
	5.8	N#CCC1(n2cc(-c3c(C#N)cnc4[nH]ccc34)cn2)CN(C2CCN(C(=O)c3cc(C(F)(F)F)ncc3F)CC2)C1 [Example 356, 4-[1-(3-(Cyanomethyl)-1-{1-[5-fluoro-2-(trifluoromethyl)isonicotinoyl]piperidin-4-yl}azetidin-3-yl)-1H-pyrazol-4-yl]-1H-pyrrolo[2,3-b]pyridine-5-carbonitrile]	
	3.8	CS(=O)(=O)N1CCC(N2CC(CC#N)(n3cc(-c4c(C#N)cnc5[nH]ccc45)cn3)C2)CC1 [Example 357, 4-(1-{3-(Cyanomethyl)-1-[1-(methylsulfonyl)piperidin-4-yl]azetidin-3-yl}-1H-pyrazol-4-yl)-1H-pyrrolo[2,3-b]pyridine-5-carbonitrile]	
	55	CN(C)Cc1cc(C(=O)N2CCC(N3CC(CC#N)(n4cc(-c5ncnc6[nH]ccc56)cn4)C3)CC2)nc(C(F)(F)F)n1 [Example 370, {1-(1-{[6-[(dimethylamino)methyl]-2-(trifluoromethyl)pyrimidin-4-yl]carbonyl}piperidin-4-yl)-3-[4-(7H-pyrrolo[2,3-d]pyrimidin-4-yl)-1H-pyrazol-1-yl]azetidin-3-yl}acetonitrile]	
	50	CCN(C)Cc1cc(C(=O)N2CCC(N3CC(CC#N)(n4cc(-c5ncnc6[nH]ccc56)cn4)C3)CC2)nc(C(F)(F)F)n1 [Example 374]	
	20	N#CCC1(n2cc(-c3ncnc4[nH]ccc34)cn2)CN(C2CCN(C(=O)c3cc(CO)nc(C(F)(F)F)n3)CC2)C1 [Example 381, {1-(1-{[6-(hydroxymethyl)-2-(trifluoromethyl)pyrimidin-4-yl]carbonyl}piperidin-4-yl)-3-[4-(7H-pyrrolo[2,3-d]pyrimidin-4-yl)-1H-pyrazol-1-yl]azetidin-3-yl}acetonitrile]	
	7.7	CCCOC(=O)N1CCC(N2CC(CC#N)(n3cc(-c4ncnc5[nH]ccc45)cn3)C2)CC1 [Example 386, Propyl 4-{3-(cyanomethyl)-3-[4-(7H-pyrrolo[2,3-d]pyrimidin-4-yl)-1H-pyrazol-1-yl]azetidin-1-yl}piperidine-1-carboxylate]	
	9.7	N#CCC1(n2cc(-c3ncnc4[nH]ccc34)cn2)CN(C2CCN(C(=O)OCC3CCC3)CC2)C1 [Example 387, Cyclobutylmethyl 4-{3-(cyanomethyl)-3-[4-(7H-pyrrolo[2,3-d]pyrimidin-4-yl)-1H-pyrazol-1-yl]azetidin-1-yl}piperidine-1-carboxylate]	
	7.6	CCOC(=O)N1CCC(N2CC(CC#N)(n3cc(-c4ncnc5[nH]ccc45)cn3)C2)CC1 [Example 388, ethyl 4-{3-(cyanomethyl)-3-[4-(7H-pyrrolo[2,3-d]pyrimidin-4-yl)-1H-pyrazol-1-yl]azetidin-1-yl}piperidine-1-carboxylate]	
	6.5	N#CCC1(n2cc(-c3ncnc4[nH]ccc34)cn2)CN(C2CCN(C(=O)OCc3ccccc3)CC2)C1 [Example 389, benzyl 4-{3-(cyanomethyl)-3-[4-(7H-pyrrolo[2,3-d]pyrimidin-4-yl)-1H-pyrazol-1-yl]azetidin-1-yl}piperidine-1-carboxylate]	
	8.3	CC(C)COC(=O)N1CCC(N2CC(CC#N)(n3cc(-c4ncnc5[nH]ccc45)cn3)C2)CC1 [Example 390, isobutyl 4-{3-(cyanomethyl)-3-[4-(7H-pyrrolo[2,3-d]pyrimidin-4-yl)-1H-pyrazol-1-yl]azetidin-1-yl}piperidine-1-carboxylate]	
	5.6	CC1(COC(=O)N2CCC(N3CC(CC#N)(n4cc(-c5ncnc6[nH]ccc56)cn4)C3)CC2)CC1 [Example 392, (1-methylcyclopropyl)methyl 4-{3-(cyanomethyl)-3-[4-(7H-pyrrolo[2,3-d]pyrimidin-4-yl)-1H-pyrazol-1-yl]azetidin-1-yl}piperidine-1-carboxylate]	
	7.1	N#CCC1(n2cc(-c3ncnc4[nH]ccc34)cn2)CN(C2CCN(C(=O)OCc3ccc(F)cc3F)CC2)C1 [Example 393, 2,4-difluorobenzyl 4-{3-(cyanomethyl)-3-[4-(7H-pyrrolo[2,3-d]pyrimidin-4-yl)-1H-pyrazol-1-yl]azetidin-1-yl}piperidine-1-carboxylate]	

SMILES	IC50 [1]	IC50 Ratio JAK2/JAK1 [2]	IC50 [3]
N#CCC1(n2cc(-c3ncnc4[nH]ccc34)cn2)CN(C2CCN(C(=O)c3ccc(-c4cccc5cccnc45)c(F)c3)CC2)C1 [Example 132, {1-[1-(3-fluoro-4-quinolin-8-ylbenzoyl)piperidin-4-yl]-3-[4-(7H-pyrrolo[2,3-d]pyrimidin-4-yl)-1H-pyrazol-1-yl]azetidin-3-yl} acetonitrile]		5.8	≤ 5 nM

— patent US10695337B2, “Piperidin-4-yl azetidine derivatives as JAK1 inhibitors” (Incyte Corporation, priority 2010, dated 2020)
